# Results as given in paper PMC10786919, “Design-rules for stapled peptides with in vivo activity and their application to Mdm2/X antagonists” (Nature Communications, 2024).
# Where two headings read alike, the source gives them in different places. Positions of bridges follow the written chain, without caps; N, C: chain ends. Non-standard residues stand in square brackets, D forms with d. Residues, ends and D or L forms follow the SMILES beside them. Lys(N3) = [N-]=[N+]=NCCCC[C@H](N)C(=O)O; hArg = N=C(N)NCCCC[C@H](N)C(=O)O; R8 = C=CCCCCCC[C@@](C)(N)C(=O)O; Cba = N[C@@H](CC1CCC1)C(=O)O; S5 = C=CCCC[C@](C)(N)C(=O)O; Aib = CC(C)(N)C(=O)O; βAla = NCCC(=O)O
# Legend:
# [1] = Lactate dehydrogenase (LDH) release assay; format: cell-based
# Outline: (§1)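 Geometric means of at least three independent biological runs are given for LDH release measured in HCT116 cells stably expressing a p53-driven β-lactamase reporter. Plating density was 8000 cells/well; DMSO in wells was 0.5%.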
# [2] = physchem
# [3] = Solubility assay (kinetic solubility, PBS pH 7); format: physicochemical; details: pH 7, PBS; for solubility kinetic: pH 7, aqueous buffer, kinetic from dmso stock, read-out: Solubility
# Outline: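 Values derive from peak-area ratios of sample versus a 100 µM standard, scaled by that standard's concentration.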
# [4] = Experimental LogD (partition coefficient); details: for logD: not stated, Partition Coeff LogD
# [5] = tested on: Jump-In T-REx CHO-K1 BLA cells; test: cells; format: cell-based
# [6] = tested on: cells transiently transfected with the NanoLuc-HaloTag vector; test: Nanoclick permeability assay; details: 4Hr
# Outline: (§2)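 Azido-peptide permeability was read as loss of NanoBRET signal (donor 450 nm, acceptor 610 nm) after adding NanoBret618-azide at 10 μM final.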
# [7] = Circular dichroism (CD) helicity; format: physicochemical
# Method: A total of 5 µL of the 10 mM stock peptide was mixed with 45 µL of 100% methanol, and dried for 2 h in the SpeedVac concentrator (Thermo Scientific). The dried peptide was reconstituted in a buffer (1 mM Hepes pH 7.4 and 5% methanol) to a concentration of 1 mM. The peptide sample was placed in a quartz cuvette with a path length of 0.2 cm. The peptide concentration was determined by the absorbance of the peptide at […]. The CD spectrum was recorded from 300 to 190 nm using the Chirascan-plus qCD machine (Applied Photophysics, Surrey, UK), at 25 °C. All experiments were done in duplicates. The CD spectrum was converted to mean residue ellipticity before deconvolution and estimation of the secondary structure components of the peptide using the CDNN software (distributed by Applied Photophysics). Measurements were taken at least twice and were reported as arithmetic means.
# [8] = tested on: HCT116 cells; test: Lactate dehydrogenase (LDH) release assay; format: cell-based
# Outline: as §1
# [9] = tested on: p53 responsive β-lactamase reporter in HCT116 cells; test: cells; format: cell-based; details: 0% FBS 4Hr; read-out: p53 reporter assay: EC50
# Outline: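 HCT116 cells stably carrying a p53-responsive β-lactamase reporter, seeded at 8000 cells/well, with 0.5% DMSO final. Reporter activity read by ToxBLAzer Dual Screen. Values are geometric means of at least three biological replicates.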
# [10] = physchem; remark: listed apart in the source
# [11] = in vitro
# Outline: as §2
# [12] = Nanoclick permeability assay EC50
SMILES,EC50 ([1]; LDH: Cytotoxicity assay EC50) [µM],EPSA [2] [A^2],solubility kinetic [3] [µM],logD [4],"cell entry EC50 [11, 12] [µM]",also measured
CC(=O)N[C@@H](CC(C)C)C(=O)N[C@H](C(=O)N[C@@H](Cc1ccccc1)C(=O)N[C@]1(C)CCCCCCC=CCCC[C@@](C)(C(=O)N[C@@H](CO)C(=O)N[C@@H](C)C(=O)N[C@@H](C)C(=O)NCCCCCC(N)=O)NC(=O)[C@H](CC2CCC2)NC(=O)[C@H](CCC(N)=O)NC(=O)[C@H](C)NC(=O)[C@H](Cc2c[nH]c3ccccc23)NC(=O)[C@H](Cc2ccc(O)cc2)NC(=O)[C@H](CCC(=O)O)NC1=O)[C@@H](C)O [MP-670],> 50,193,–,–,–,Solubility [3]: Poorly Behaved; Partition Coeff LogD [4]: Poorly Behaved
CC(=O)N[C@@H](CC(C)C)C(=O)N[C@H](C(=O)N[C@@H](Cc1ccccc1)C(=O)NC(C)(C)C(=O)N[C@@H](CCC(=O)O)C(=O)N[C@@H](Cc1ccc(O)cc1)C(=O)N[C@@H](Cc1c[nH]c2ccccc12)C(=O)N[C@@H](C)C(=O)N[C@@H](CCC(N)=O)C(=O)N[C@@H](CC(C)C)C(=O)NC(C)(C)C(=O)N[C@@H](CO)C(N)=O)[C@@H](C)O [MP-790] (Ac-LTF[Aib]EYWAQL[Aib]S-NH2),–,–,88,2.11,–,"TETCHO: Counterscreen % Effect ([5]; 0% FBS 4Hr): 9.13%; EC50 ([5]; 0% FBS 4Hr, read-out: TETCHO: Counterscreen EC50): > 50.6 µM; TETCHO: Counterscreen % Effect ([5]; 0% FBS 16Hr): 119.2%; Nanoclick permeability assay % Effect [6]: -7.015%; CD % Helicity [7]: 19%; EC50 ([1]; LDH: Cytotoxicity assay: EC50): > 50.6 µM; LDH: Cytotoxicity assay: % Effect [8]: -1.73%; EC50 [9]: > 50.6 µM; EPSA [10]: 176 A^2"
CC[C@H](C)[C@H](NC(=O)[C@H](CC(C)C)NC(=O)[C@@H]1CCCN1C(C)=O)C(=O)N[C@@H](Cc1ccc(O)cc1)C(=O)N[C@@H](CC(C)C)C(=O)N[C@@H](CCCNC(=N)N)C(=O)N[C@@H](CC(C)C)C(=O)N[C@@H](CC(C)C)C(=O)N[C@@H](CCCNC(=N)N)C(=O)NCC(=O)N[C@@H](CCC(N)=O)C(=O)N[C@@H](Cc1ccccc1)C(=O)N[C@@H](CCCCN=[N+]=[N-])C(=O)NCCC(=O)N[C@@H](CC(C)C)C(=O)N[C@H](C(=O)N[C@@H](Cc1ccccc1)C(=O)N[C@]1(C)CCCCCCC=CCCC[C@@](C)(C(=O)N[C@@H](CO)C(=O)N[C@@H](C)C(=O)N[C@@H](C)C(N)=O)NC(=O)[C@H](CC2CCC2)NC(=O)[C@H](CCC(N)=O)NC(=O)[C@H](C)NC(=O)[C@H](Cc2c[nH]c3ccccc23)NC(=O)[C@H](Cc2ccc(O)cc2)NC(=O)[C@H](CCC(=O)O)NC1=O)[C@@H](C)O [MP-880],> 50,245,2,3.54,0.569,–
CC(=O)N[C@@H](CCCCN=[N+]=[N-])C(=O)NCCC(=O)N[C@@H](CC(C)C)C(=O)N[C@H](C(=O)N[C@@H](Cc1ccccc1)C(=O)N[C@]1(C)CCCCCCC=CCCC[C@@](C)(C(=O)N[C@@H](CO)C(=O)N[C@@H](CCCCNC(=N)N)C(=O)N[C@@H](C)C(N)=O)NC(=O)[C@H](CC2CCC2)NC(=O)[C@H](CCC(N)=O)NC(=O)[C@H](C)NC(=O)[C@H](Cc2c[nH]c3ccccc23)NC(=O)[C@H](Cc2ccc(O)cc2)NC(=O)[C@H](CCC(=O)O)NC1=O)[C@@H](C)O [MP-881] (Ac-[Lys(N3)][βAla]LTF[R8]EYWAQ[Cba][S5]S[hArg]A-NH2; staple 6-13),> 50,183,2,2.9,1.92,–
CC(=O)N[C@@H](CCCCN=[N+]=[N-])C(=O)NCCC(=O)N[C@@H](CC(C)C)C(=O)N[C@H](C(=O)N[C@@H](Cc1ccccc1)C(=O)N[C@]1(C)CCCCCCC=CCCC[C@@](C)(C(=O)N[C@@H](CO)C(=O)N[C@@H](C)C(=O)N[C@@H](C)C(N)=O)NC(=O)[C@H](CC2CCC2)NC(=O)[C@H](CCC(N)=O)NC(=O)[C@H](CCCCNC(=N)N)NC(=O)[C@H](Cc2c[nH]c3ccccc23)NC(=O)[C@H](Cc2ccc(O)cc2)NC(=O)[C@H](CCC(=O)O)NC1=O)[C@@H](C)O [MP-899] (Ac-[Lys(N3)][βAla]LTF[R8]EYW[hArg]Q[Cba][S5]SAA-NH2; staple 6-13),> 50,200,2,2.76,0.189,–
CC(=O)N[C@@H](CCCCN=[N+]=[N-])C(=O)NCCC(=O)N[C@@H](CC(C)C)C(=O)N[C@H](C(=O)N[C@@H](Cc1ccccc1)C(=O)N[C@]1(C)CCCCCCC=CCCC[C@@](C)(C(=O)N[C@@H](CO)C(=O)N[C@@H](C)C(=O)N[C@@H](C)C(N)=O)NC(=O)[C@H](CC2CCC2)NC(=O)[C@H](CCCCNC(=N)N)NC(=O)[C@H](C)NC(=O)[C@H](Cc2c[nH]c3ccccc23)NC(=O)[C@H](Cc2ccc(O)cc2)NC(=O)[C@H](CCC(=O)O)NC1=O)[C@@H](C)O [MP-900] (Ac-[Lys(N3)][βAla]LTF[R8]EYWA[hArg][Cba][S5]SAA-NH2; staple 6-13),–,187,10,3.03,1.04,–
CC(=O)N[C@@H](CCCCN=[N+]=[N-])C(=O)NCCC(=O)N[C@@H](CC(C)C)C(=O)N[C@H](C(=O)N[C@@H](Cc1ccccc1)C(=O)N[C@]1(C)CCCCCCC=CCCC[C@@](C)(C(=O)N[C@@H](CCCCNC(=N)N)C(=O)N[C@@H](C)C(=O)N[C@@H](C)C(N)=O)NC(=O)[C@H](CC2CCC2)NC(=O)[C@H](CCC(N)=O)NC(=O)[C@H](C)NC(=O)[C@H](Cc2c[nH]c3ccccc23)NC(=O)[C@H](Cc2ccc(O)cc2)NC(=O)[C@H](CCC(=O)O)NC1=O)[C@@H](C)O [MP-901] (Ac-[Lys(N3)][βAla]LTF[R8]EYWAQ[Cba][S5][hArg]AA-NH2; staple 6-13),> 50.6,186,–,–,0.46,Solubility [3]: Poorly Behaved; Partition Coeff LogD [4]: Poorly Behaved
CC(=O)N[C@@H](CCCCN=[N+]=[N-])C(=O)NCCC(=O)N[C@@H](CC(C)C)C(=O)N[C@H](C(=O)N[C@@H](Cc1ccccc1)C(=O)N[C@]1(C)CCCCCCC=CCCC[C@@](C)(C(=O)N[C@@H](CO)C(=O)N[C@@H](C)C(=O)N[C@@H](CCCCNC(=N)N)C(N)=O)NC(=O)[C@H](CC2CCC2)NC(=O)[C@H](CCC(N)=O)NC(=O)[C@H](C)NC(=O)[C@H](Cc2c[nH]c3ccccc23)NC(=O)[C@H](Cc2ccc(O)cc2)NC(=O)[C@H](CCC(=O)O)NC1=O)[C@@H](C)O [MP-902] (Ac-[Lys(N3)][βAla]LTF[R8]EYWAQ[Cba][S5]SA[hArg]-NH2; staple 6-13),> 50,191,6,2.54,2.65,–
CC(=O)N[C@@H](CCCCN=[N+]=[N-])C(=O)NCCC(=O)N[C@@H](CC(C)C)C(=O)N[C@H](C(=O)N[C@@H](Cc1ccccc1)C(=O)N[C@]1(C)CCCCCCC=CCCC[C@@](C)(C(=O)N[C@@H](CO)C(=O)N[C@@H](C)C(=O)N[C@@H](C)C(N)=O)NC(=O)[C@H](CC2CCC2)NC(=O)[C@H](CCC(N)=O)NC(=O)[C@H](C)NC(=O)[C@H](Cc2c[nH]c3ccccc23)NC(=O)[C@H](Cc2ccc(O)cc2)NC(=O)[C@@H]2CCCN2C1=O)[C@@H](C)O [MP-8834],–,–,–,3.03,–,"TETCHO: Counterscreen % Effect ([5]; 0% FBS 4Hr): 11.7%; Nanoclick permeability assay % Effect [6]: 129.4%; cell entry EC50 [11]: 0.312 µM; CD % Helicity [7]: 21.9%; EC50 ([1]; 0% FBS 4Hr, read-out: LDH: Cytotoxicity assay: EC50): > 50.6 µM; LDH: Cytotoxicity assay: % Effect ([8]; 0% FBS 4Hr): 1.728%; EPSA [10]: 187 A^2"
